Reference: ChEMBL document CHEMBL2074435, “Quantitative analysis of breast cancer resistance protein and cellular resistance to flavopiridol in acute leukemia patients” (Clin Cancer Res, 2003)

Biological target: T1, Broad substrate specificity ATP-binding cassette transporter ABCG2 (Homo sapiens, UniProt Q9UNQ0)
T1 sequence (Q9UNQ0 whole entry): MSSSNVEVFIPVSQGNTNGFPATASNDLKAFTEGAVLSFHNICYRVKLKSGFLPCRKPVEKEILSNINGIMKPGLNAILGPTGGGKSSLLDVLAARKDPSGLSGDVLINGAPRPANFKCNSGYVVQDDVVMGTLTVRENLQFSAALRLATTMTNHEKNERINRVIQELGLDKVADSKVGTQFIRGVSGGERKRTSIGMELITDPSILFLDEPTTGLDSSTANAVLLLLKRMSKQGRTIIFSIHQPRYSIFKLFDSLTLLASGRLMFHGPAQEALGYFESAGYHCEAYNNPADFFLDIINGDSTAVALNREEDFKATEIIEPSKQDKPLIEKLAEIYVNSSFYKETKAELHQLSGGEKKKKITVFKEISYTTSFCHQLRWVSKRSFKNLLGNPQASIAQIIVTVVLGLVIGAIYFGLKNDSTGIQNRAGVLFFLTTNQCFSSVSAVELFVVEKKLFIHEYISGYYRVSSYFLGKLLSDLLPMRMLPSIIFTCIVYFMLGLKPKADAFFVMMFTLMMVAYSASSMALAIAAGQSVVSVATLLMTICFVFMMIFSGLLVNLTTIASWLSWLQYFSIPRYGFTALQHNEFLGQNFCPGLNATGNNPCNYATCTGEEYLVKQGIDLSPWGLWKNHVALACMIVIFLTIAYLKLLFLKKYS
Experiment: TP_TRANSPORTER: correlation hBCRPmRNA with flavopiridol induced apoptosis resistance
Assay type: functional, cell-based

CN1CC[C@H](c2c(O)cc(O)c3c(=O)cc(-c4ccccc4Cl)oc23)[C@H](O)C1 [ALVOCIDIB]
Activity: substrate []
